Reference: patent US9102678B2, “Compounds and methods for inhibiting mitotic progression” (Millennium Pharmaceuticals, Inc., priority 2004, dated 2015)

target: T1, recombinant murine Aurora A enzyme (Mus musculus, UniProt P97477); assay: Aurora A DELFIA Kinase Assay; assay type: biochemical; settings: mouse Aurora A, 250 μM ATP; threshold less than or equal to 100 nM; read-out: IC50
T1 construct: hexahistidine (His6) (N); made in house; host or cells: insect cells, baculovirus (Bac-to-Bac, Invitrogen)
T1 sequence (P97477 whole entry): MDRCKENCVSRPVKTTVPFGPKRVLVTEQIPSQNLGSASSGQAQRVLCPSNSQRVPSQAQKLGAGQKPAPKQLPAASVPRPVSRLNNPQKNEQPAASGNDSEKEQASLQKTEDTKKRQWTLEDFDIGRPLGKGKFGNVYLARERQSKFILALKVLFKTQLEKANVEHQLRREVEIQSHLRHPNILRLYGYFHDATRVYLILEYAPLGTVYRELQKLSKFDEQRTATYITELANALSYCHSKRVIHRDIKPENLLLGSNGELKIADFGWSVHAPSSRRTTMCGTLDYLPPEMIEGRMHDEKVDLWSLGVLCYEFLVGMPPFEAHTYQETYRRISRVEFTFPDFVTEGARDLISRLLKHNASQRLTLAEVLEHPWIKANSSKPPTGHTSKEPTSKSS

Row | IC50 [nM] | Structure (SMILES)
1 | ≤ 100 | COc1cccc(F)c1C1=NCc2cnc(Nc3ccc(C(=O)N(C)CCCN(C)C)cc3)nc2-c2ccc(Cl)cc21 [Compound I-225, 4-{[9-chloro-7-(2-fluoro-6-methoxyphenyl)-5H-pyrimido[5,4-d][2]benzazepin-2-yl]amino}-N-[3-(dimethylamino)propyl]-N-methylbenzamide]
2 | ≤ 100 | COc1cccc(F)c1C1=NCc2cnc(Nc3cccc(C(=O)N(C)CCCN(C)C)c3)nc2-c2ccc(Cl)cc21 [Compound I-226, 3-{[9-chloro-7-(2-fluoro-6-methoxyphenyl)-5H-pyrimido[5,4-d][2]benzazepin-2-yl]amino}-N-[3-(dimethylamino)propyl]-N-methylbenzamide]
3 | ≤ 100 | COc1cccc(F)c1C1=NCc2cnc(Nc3cccc(C(=O)N4CC(N(C)C)C4)c3)nc2-c2ccc(Cl)cc21 [Compound I-227, 9-chloro-N-(3-{[3-(dimethylamino)azetidin-1-yl]carbonyl}phenyl)-7-(2-fluoro-6-methoxyphenyl)-5H-pyrimido[5,4-d][2]benzazepin-2-amine]
4 | ≤ 100 | COc1cccc(F)c1C1=NCc2cnc(Nc3cccc(C(=O)N4CC(C)NC(C)C4)c3)nc2-c2ccc(Cl)cc21 (stereo not drawn) [Compound I-228, 9-chloro-N-{3-[(3,5-dimethylpiperazin-1-yl)carbonyl]phenyl}-7-(2-fluoro-6-methoxyphenyl)-5H-pyrimido[5,4-d][2]benzazepin-2-amine]
5 | ≤ 100 | COc1cccc(F)c1C1=NCc2cnc(Nc3cccc(C(=O)N4CCC(N(C)C)CC4)c3)nc2-c2ccc(Cl)cc21 [Compound I-229, 9-chloro-N-(3-{[4-(dimethylamino)piperidin-1-yl]carbonyl}phenyl)-7-(2-fluoro-6-methoxyphenyl)-5H-pyrimido[5,4-d][2]benzazepin-2-amine]
6 | ≤ 100 | COc1cccc(F)c1C1=NCc2cnc(Nc3cccc(C(=O)N4CCC(N(C)C)C4)c3)nc2-c2ccc(Cl)cc21 (stereo not drawn) [Compound I-231, 9-chloro-N-(3-{[3-(dimethylamino)pyrrolidin-1-yl]carbonyl}phenyl)-7-(2-fluoro-6-methoxyphenyl)-5H-pyrimido[5,4-d][2]benzazepin-2-amine]
7 | ≤ 100 | COc1cccc(F)c1C1=NCc2cnc(Nc3ccc(C(=O)N4CCNC(C)C4)cc3)nc2-c2ccc(Cl)cc21 (stereo not drawn) [Compound I-232]
8 | ≤ 100 | COc1cccc(F)c1C1=NCc2cnc(Nc3ccc(C(=O)N4CCN(C)CC4)cc3)nc2-c2ccc(Cl)cc21 [Compound I-233, 9-chloro-7-(2-fluoro-6-methoxyphenyl)-N-{4-[(4-methylpiperazin-1-yl)carbonyl]phenyl}-5H-pyrimido[5,4-d][2]benzazepin-2-amine]
9 | ≤ 100 | CNC1CN(C(=O)c2ccc(Nc3ncc4c(n3)-c3ccc(Cl)cc3C(c3c(F)cccc3F)=NC4)cc2)C1 [Compound I-234, 9-chloro-7-(2,6-difluorophenyl)-N-(4-{[3-(methylamino)azetidin-1-yl]carbonyl}phenyl)-5H-pyrimido[5,4-d][2]benzazepin-2-amine]
10 | ≤ 100 | CNC1CN(C(=O)c2ccc(Nc3ncc4c(n3)-c3ccc(Cl)cc3C(c3c(F)cccc3OC)=NC4)cc2)C1 [Compound I-235, 9-chloro-7-(2-fluoro-6-methoxyphenyl)-N-(4-{[3-(methylamino)azetidin-1-yl]carbonyl}phenyl)-5H-pyrimido[5,4-d][2]benzazepin-2-amine]
11 | ≤ 100 | CN(C)C1CCN(C(=N)NC(=O)c2ccc(Nc3ncc4c(n3)-c3ccc(Cl)cc3C(c3c(F)cccc3F)=NC4)cc2)C1 (stereo not drawn) [Compound I-237, 4-[9-Chloro-7-(2,6-difluoro-phenyl)-5H-benzo[c]pyrimido[4,5-e]azepin-2-ylamino]-N-[(3-dimethylamino-pyrrolidin-1-yl)-imino-methyl]-benzamide]
12 | ≤ 100 | CC1CN(C(=N)NC(=O)c2ccc(Nc3ncc4c(n3)-c3ccc(Cl)cc3C(c3c(F)cccc3F)=NC4)cc2)CC(C)N1 (stereo not drawn) [Compound I-238, 4-{[9-chloro-7-(2,6-difluorophenyl)-5H-pyrimido[5,4-d][2]benzazepin-2-yl]amino}-N-[(3,5-dimethylpiperazin-1-yl)(imino)methyl]benzamide]
13 | ≤ 100 | NC1CCN(C(=O)c2ccc(Nc3ncc4c(n3)-c3ccc(Cl)cc3C(c3c(F)cccc3F)=NC4)cc2)CC1 [Compound I-239, N-{4-[(4-aminopiperidin-1-yl)carbonyl]phenyl}-9-chloro-7-(2,6-difluorophenyl)-5H-pyrimido[5,4-d][2]benzazepin-2-amine]
14 | ≤ 100 | COc1cccc(F)c1C1=NCc2cnc(Nc3ccc(C(=O)N4CCC(N)C4)cc3)nc2-c2ccc(Cl)cc21 (stereo not drawn) [Compound I-240]
15 | ≤ 100 | COc1cccc(F)c1C1=NCc2cnc(Nc3ccc(C(=O)N4CCC(N)CC4)cc3)nc2-c2ccc(Cl)cc21 [Compound I-241, N-{4[(4-aminopiperidin-1-yl)carbonyl]phenyl}-9-chloro-7-(2-fluoro-6-methoxyphenyl)-5H-pyrimido[5,4-d][2]benzazepin-2-amine]
16 | ≤ 100 | CNC1CCN(C(=O)c2ccc(Nc3ncc4c(n3)-c3ccc(Cl)cc3C(c3c(F)cccc3OC)=NC4)cc2)CC1 [Compound I-242, 9-chloro-7-(2-fluoro-6-methoxyphenyl)-N-(4-{[4-(methylamino)piperidin-1-yl]carbonyl}phenyl)-5H-pyrimido[5,4-d][2]benzazepin-2-amine]
17 | ≤ 100 | COc1cccc(F)c1C1=NCc2cnc(Nc3ccc(C(=O)N4CCNCC4)cc3)nc2-c2ccc(Cl)cc21 [Compound I-243, 9-chloro-7-(2-fluoro-6-methoxyphenyl)-N-[4-(piperazin-1-ylcarbonyl)phenyl]-5H-pyrimido[5,4-d][2]benzazepin-2-amine]
18 | ≤ 100 | CN(C)C1CCN(C(=N)c2ccc(Nc3ncc4c(n3)-c3ccc(Cl)cc3C(c3c(F)cccc3F)=NC4)cc2)CC1 [Compound I-244, 9-chloro-7-(2,6-difluorophenyl)-N-{4-[[4-(dimethylamino)piperidin-1-yl](imino)methyl]phenyl}-5H-pyrimido[5,4-d][2]benzazepin-2-amine]
19 | ≤ 100 | CNCCN(C)C(=O)c1ccc(Nc2ncc3c(n2)-c2ccc(Cl)cc2C(c2c(F)cccc2F)=NC3)cc1 [Compound I-246, 4-{[9-chloro-7-(2,6-difluorophenyl)-5H-pyrimido[5,4-d][2]benzazepin-2-yl]amino}-N-methyl-N-[2-(methylamino)ethyl]benzamide]
20 | ≤ 100 | CN(C)CCN(C)C(=O)c1ccc(Nc2ncc3c(n2)-c2ccc(Cl)cc2C(c2c(F)cccc2F)=NC3)cc1 [Compound I-247, 4-{[9-chloro-7-(2,6-difluorophenyl)-5H-pyrimido[5,4-d][2]benzazepin-2-yl]amino}-N-[2-(dimethylamino)ethyl]-N-methylbenzamide]
21 | ≤ 100 | COC(=O)C1CN(C(=O)c2ccc(Nc3ncc4c(n3)-c3ccc(Cl)cc3C(c3c(F)cccc3F)=NC4)cc2)CCN1 (stereo not drawn) [Compound I-248, methyl 4-(4-{[9-chloro-7-(2,6-difluorophenyl)-5H-pyrimido[5,4-d][2]benzazepin-2-yl]amino}benzoyl)piperazine-2-carboxylate]
22 | ≤ 100 | O=C(O)c1ccc(Nc2ncc3c(n2)-c2ccc(C(=O)O)cc2C(c2ccccc2F)=NC3)cc1 [Compound I-249, 2-[(4-carboxyphenyl)amino]-7-(2-fluorophenyl)-5H-pyrimido[5,4-d][2]benzazepine-9-carboxylic acid]
23 | ≤ 100 | CN(C)C1CCN(C(=N)c2ccc(Nc3ncc4c(n3)-c3ccc(Cl)cc3C(c3c(F)cccc3F)=NC4)cc2)C1 (stereo not drawn) [Compound I-250, 9-chloro-7-(2,6-difluorophenyl)-N-{4-[[3-(dimethylamino)pyrrolidin-1-yl](imino)methyl]phenyl}-5H-pyrimido[5,4-d][2]benzazepin-2-amine]
24 | ≤ 100 | CC1CN(C(=N)c2ccc(Nc3ncc4c(n3)-c3ccc(Cl)cc3C(c3c(F)cccc3F)=NC4)cc2)CC(C)N1 (stereo not drawn) [Compound I-251, [9-Chloro-7-(2,6-difluoro-phenyl)-5H-benzo[c]pyrimido[4,5-e]azepin-2-yl]-{4-[(3,5-dimethyl-piperazin-1-yl)-imino-methyl]-phenyl}-amine]
25 | ≤ 100 | CN(CCN)C(=O)c1ccc(Nc2ncc3c(n2)-c2ccc(Cl)cc2C(c2c(F)cccc2F)=NC3)cc1 [Compound I-252, N-(2-aminoethyl)-4-{[9-chloro-7-(2,6-difluorophenyl)-5H-pyrimido[5,4-d][2]benzazepin-2-yl]amino}-N-methylbenzamide]
26 | ≤ 100 | CNC1CCCN(C(=O)c2ccc(Nc3ncc4c(n3)-c3ccc(Cl)cc3C(c3c(F)cccc3F)=NC4)cc2)C1 (stereo not drawn) [Compound I-253, 9-chloro-7-(2,6-difluorophenyl)-N-(4-{[3-(methylamino)piperidin-1-yl]carbonyl}phenyl)-5H-pyrimido[5,4-d][2]benzazepin-2-amine]
27 | ≤ 100 | CNCCN(C)C(=O)c1ccc(Nc2ncc3c(n2)-c2ccc(Cl)cc2C(c2c(F)cccc2OC)=NC3)cc1 [Compound I-254, 4-{[9-chloro-7-(2-fluoro-6-methoxyphenyl)-5H-pyrimido[5,4-d][2]benzazepin-2-yl]amino}-N-methyl-N-[2-(methylamino)ethyl]benzamide]
28 | ≤ 100 | COc1cccc(F)c1C1=NCc2cnc(Nc3ccc(C(=O)N(C)CCN(C)C)cc3)nc2-c2ccc(Cl)cc21 [Compound I-255, 4-{[9-chloro-7-(2-fluoro-6-methoxyphenyl)-5H-pyrimido[5,4-d][2]benzazepin-2-yl]amino}-N-[2-(dimethylamino)ethyl]-N-methylbenzamide]
29 | ≤ 100 | COc1cccc(Nc2ncc3c(n2)-c2ccc(C(=O)O)cc2C(c2ccccc2F)=NC3)c1 [Compound I-256, 7-(2-fluorophenyl)-2-[(3-methoxyphenyl)amino]-5H-pyrimido[5,4-d][2]benzazepine-9-carboxylic acid]
30 | ≤ 100 | CN(CCCN)C(=O)c1ccc(Nc2ncc3c(n2)-c2ccc(Cl)cc2C(c2c(F)cccc2F)=NC3)cc1 [Compound I-257, N-(3-aminopropyl)-4-{[9-chloro-7-(2,6-difluorophenyl)-5H-pyrimido[5,4-d][2]benzazepin-2-yl]amino}-N-methylbenzamide]
